Experimental data published in ChEMBL document CHEMBL4312007, “First synthesis of merged hybrids phosphorylated azirino[2,1-b]benzo[e][1,3]oxazine derivatives as anticancer agents” (Eur J Med Chem, 2020).

Assays:
MRC5 = test: Cytotoxicity against human MRC5 cells assessed as reduction in cell growth incubated for 48 hrs by CCK8 assay; format: cell-based; details: MRC5, 48 h
A549 = test: Antiproliferative activity against human A549 cells assessed as inhibition of cell growth incubated for 48 hrs by CCK8 assay; format: functional, cell-based; details: A549, 48 h
HEK293 = test: Antiproliferative activity against HEK293 cells assessed as inhibition of cell growth incubated for 48 hrs by CCK8 assay; format: functional, cell-based; details: Homo sapiens, HEK293, 48 h

Compound | IC50 (MRC5) | IC50 (A549) | IC50 (HEK293)
COc1cccc2c1O[C@@]1(C)[C@H](P(=O)(c3ccccc3)c3ccccc3)N1[C@H]2O (relative stereo) | > 50 µM | 1.3 µM | > 50 µM
C[C@@]12Oc3ccc(F)cc3[C@H](O)N1[C@H]2P(=O)(c1ccccc1)c1ccccc1 (relative stereo) | > 50 µM | 19.6 µM | > 50 µM
CC[C@@]12Oc3ccc(C)cc3[C@H](O)N1[C@H]2P(=O)(c1ccccc1)c1ccccc1 (relative stereo) | > 50 µM | 12.9 µM | > 50 µM
Cc1ccc2c(c1)[C@H](O)N1[C@@H](P(=O)(c3ccccc3)c3ccccc3)[C@]1(C)O2 (relative stereo) | > 50 µM | 3.2 µM | > 50 µM
CC(C)OP(=O)(OC(C)C)[C@@H]1N2[C@@H](O)c3ccccc3O[C@@]12C (relative stereo) | > 50 µM | 3 µM | > 50 µM
CC[C@@]12Oc3c(OC)cccc3[C@H](O)N1[C@H]2P(=O)(c1ccccc1)c1ccccc1 (relative stereo) | > 50 µM | 20.7 µM | > 50 µM
CC[C@@]12Oc3ccccc3[C@](C)(O)N1[C@H]2P(=O)(c1ccccc1)c1ccccc1 (relative stereo) | > 50 µM | 3.2 µM | > 50 µM
C[C@]1(O)c2ccccc2O[C@@]2(C)[C@H](P(=O)(c3ccccc3)c3ccccc3)N12 (relative stereo) | > 50 µM | 21.1 µM | > 50 µM
CC(C)OP(=O)(OC(C)C)[C@@H]1N2[C@@](C)(O)c3ccccc3O[C@@]12C (relative stereo) | > 50 µM | 10.3 µM | > 50 µM
CCOP(=O)(OCC)[C@@H]1N2[C@@H](O)c3ccccc3O[C@@]12C (relative stereo) | > 50 µM | 15.8 µM | 
C[C@@]12Oc3ccccc3[C@H](O)N1[C@H]2P(=O)(c1ccccc1)c1ccccc1 (relative stereo) | > 50 µM | 2.7 µM | > 50 µM
CC[C@@]12Oc3ccccc3[C@H](O)N1[C@H]2P(=O)(c1ccccc1)c1ccccc1 (relative stereo) | > 50 µM | 10.4 µM | > 50 µM
COc1cccc2c1C(=O)c1c(O)c3c(c(O)c1C2=O)C[C@@](O)(C(=O)CO)C[C@@H]3O[C@H]1C[C@H](N)[C@H](O)[C@H](C)O1 [DOXORUBICIN] | > 50 µM |  | 5.68 µM
